Measured values taken from patent publication US20240116985A1, “STAPLED PEPTIDES AND METHODS THEREOF” (priority 2020, published 2024).
Values after ≈ are worked out from the molar mass of the structure shown. Read-outs that look alike come from different tables or passages of the source.

Tests used:
[1] = molecular target: T1, full-length beta-Catenin (Uniprot ID P35222) (Homo sapiens, UniProt P35222); test: Fluorescence polarization IC50 (beta-catenin / 5FAM-TCF4 10-53 competition); format: binding
T1 construct: 10 nM full-length beta-Catenin (Uniprot ID P35222)
T1 sequence (P35222 1-781): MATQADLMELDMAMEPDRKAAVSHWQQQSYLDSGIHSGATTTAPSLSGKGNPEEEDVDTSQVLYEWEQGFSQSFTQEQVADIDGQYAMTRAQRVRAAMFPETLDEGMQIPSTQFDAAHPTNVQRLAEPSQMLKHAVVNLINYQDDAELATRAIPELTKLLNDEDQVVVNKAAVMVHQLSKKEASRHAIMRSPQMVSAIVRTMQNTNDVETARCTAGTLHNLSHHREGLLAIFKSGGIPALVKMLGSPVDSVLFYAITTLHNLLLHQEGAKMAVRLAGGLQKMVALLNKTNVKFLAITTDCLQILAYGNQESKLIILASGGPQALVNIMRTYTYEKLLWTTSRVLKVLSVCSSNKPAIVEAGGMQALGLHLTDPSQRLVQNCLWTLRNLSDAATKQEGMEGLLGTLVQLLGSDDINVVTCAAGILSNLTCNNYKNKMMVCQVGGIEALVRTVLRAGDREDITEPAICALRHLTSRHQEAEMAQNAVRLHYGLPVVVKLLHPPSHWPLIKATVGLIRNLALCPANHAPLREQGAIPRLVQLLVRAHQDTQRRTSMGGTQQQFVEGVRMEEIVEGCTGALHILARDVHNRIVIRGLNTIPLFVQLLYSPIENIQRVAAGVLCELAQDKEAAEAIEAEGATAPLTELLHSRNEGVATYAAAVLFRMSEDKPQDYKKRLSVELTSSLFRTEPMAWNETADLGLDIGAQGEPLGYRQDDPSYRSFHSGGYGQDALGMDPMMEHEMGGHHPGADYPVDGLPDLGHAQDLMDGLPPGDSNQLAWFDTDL

CHI Log D procedure = format: physicochemical; details: for CHI Log D: pH 7.4; for chromatographic logD: pH 7.4, CHI Log D
Solubility in PBS = format: physicochemical
In short: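 Solubility is derived from HPLC peak areas: the ratio of the PBS supernatant peak to a 50 μM DMSO peptide peak, times 50 uM.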

[2] = fluorescence polarization, read-out: beta-Catenin FP IC50
[3] = fluorescence polarization, beta-catenin, read-out: FP EC50

SMILES | IC50 [1, 2] [µM] | CHI Log D (CHI Log D procedure) | Solubility (Solubility in PBS; 15 min) [µM] | chromatographic logD (CHI Log D procedure) | Solubility (Solubility in PBS) [µM] | Solubility (Solubility in PBS; Solubility (uM)) [µM] | IC50 ([1]; read-out: FP EC50) [µM] | IC50 ([1]; read-out: beta-Catenin FP IC50) [µM] | IC50 [1, 3] [µM]
CC(=O)N1CCC[C@]12CC=CCCCC1(CCCC=CCCCCCC[C@@](C)(C(=O)N[C@@H](Cc3ccccc3)C(=O)N[C@@H](Cc3csc4ccccc34)C(=O)N[C@@H](CCC(N)=O)C(N)=O)NC(=O)[C@H](CC(N)=O)NC(=O)[C@H](Cc3ccccc3)NC(=O)[C@H](C)NC(=O)[C@H](C)NC(=O)[C@H](Cc3nn[nH]n3)NC(=O)[C@H](CC(=O)O)NC1=O)NC(=O)[C@H](C)NC(=O)[C@H](CC(=O)O)NC2=O (stereo partly drawn) [I-444, Ac-PL3-Asp-Ala-B5-Asp-Tetz-Ala-Ala-Phe-Asn-S8-Phe-BztA-Gln-NH2] | 0.08 | – | – | 1.99 | 50 (≈ 91.9 µg/mL) | – | – | – | –
CC(=O)N1CCC[C@]12CC=CCCCC1(CCCC=CCOC(=O)N(C)CCC[C@@](C)(C(=O)N[C@@H](Cc3ccsc3)C(=O)N[C@@H](Cc3csc4ccccc34)C(=O)N[C@@H](CCC(N)=O)C(N)=O)NC(=O)[C@H](CC(N)=O)NC(=O)[C@H](Cc3ccccc3)NC(=O)[C@H](C)NC(=O)[C@H](C)NC(=O)[C@H](CC(=O)O)NC(=O)[C@H](CC(=O)O)NC1=O)NC(=O)[C@H](CC(C)(C)C)NC(=O)[C@H](CC(=O)O)NC2=O (stereo partly drawn) [I-766, Ac-PL3-Asp-Npg-B5-Asp-Asp-Ala-Ala-Phe-Asn-SeN-3Thi-BztA-Gln-NH2] | – | 1.853 | – | – | 50 (≈ 96 µg/mL) | – | 0.055 | 0.055 | –
CCN(CC(=O)O)C[C@@H]1NC(=O)[C@H](CC(=O)O)NC(=O)C2(CCCC=CCCCOC(=O)N3CC[C@@](C(=O)N[C@@H](Cc4ccsc4)C(=O)N[C@@H](Cc4csc5ccccc45)C(=O)N[C@@H](CCC(N)=O)C(N)=O)(C3)NC(=O)[C@H](Cc3ccccc3)NC(=O)[C@H](Cc3ccccc3)NC(=O)[C@H](C)NC(=O)[C@H](C)NC1=O)CCCC=CC[C@]1(CCCN1C(C)=O)C(=O)N[C@@H](CC(=O)O)C(=O)N[C@@H](CC(C)(C)C)C(=O)N2 (stereo partly drawn) [I-971, Ac-PL3-Asp-Npg-B5-Asp-EtGA-Ala-Ala-Phe-Phe-PyrS2-3Thi-BztA-Gln-NH2] | – | 1.939 | – | – | 10 (≈ 20.1 µg/mL) | – | – | 1.84 | 1.61
CC(=O)N1CCC[C@]12CC=CCCCC1(CCCC=CCCCOC(=O)N3CC[C@@](C(=O)N[C@@H](Cc4ccsc4)C(=O)N[C@@H](Cc4csc5ccccc45)C(=O)N[C@@H](CO)C(N)=O)(C3)NC(=O)[C@H]([C@@H](C)O)NC(=O)[C@H](Cc3ccccc3)NC(=O)[C@H](C)NC(=O)[C@H](C)NC(=O)[C@H](CN(CC(=O)O)CC(F)(F)F)NC(=O)[C@H](CC(=O)O)NC1=O)NC(=O)[C@H](CC(C)(C)C)NC(=O)[C@H](CC(=O)O)NC2=O (stereo partly drawn) [I-956, Ac-PL3-Asp-Npg-B5-Asp-TfeGA-Ala-Ala-Phe-Thr-PyrS2-3Thi-BztA-Ser-NH2] | – | 1.875 | – | – | 46 (≈ 90.9 µg/mL) | – | – | 1.09 | 1.09
CC(=O)N1CCC[C@]12CC=CCCCC1(CCCC=CCCCOC(=O)N3CC[C@@](C(=O)N[C@@H](Cc4ccsc4)C(=O)N[C@@H](Cc4csc5ccccc45)C(=O)N[C@@H](CO)C(N)=O)(C3)NC(=O)[C@H](CO)NC(=O)[C@H](Cc3ccccc3)NC(=O)[C@H](C)NC(=O)[C@H](C)NC(=O)[C@H](CN(CC(=O)O)CC(F)(F)F)NC(=O)[C@H](CC(=O)O)NC1=O)NC(=O)[C@H](CC(C)(C)C)NC(=O)[C@H](CC(=O)O)NC2=O (stereo partly drawn) [I-955, Ac-PL3-Asp-Npg-B5-Asp-TfeGA-Ala-Ala-Phe-Ser-PyrS2-3Thi-BztA-Ser-NH2] | – | 1.998 | – | – | 45 (≈ 88.3 µg/mL) | – | – | 1.2 | 1.2
CC(=O)N1CCC[C@]12CC=CCCCC1(CCCC=CCCCOC(=O)N3CC[C@@](C(=O)N[C@@H](Cc4ccccc4Cl)C(=O)N[C@@H](Cc4csc5ccccc45)C(=O)N[C@@H](C(N)=O)[C@H](C)O)(C3)NC(=O)[C@H](CC(C)C)NC(=O)[C@H](Cc3ccccc3)NC(=O)[C@H](C)NC(=O)[C@H](C)NC(=O)[C@H](CCC(=O)O)NC(=O)[C@H](CC(=O)O)NC1=O)NC(=O)[C@H](CC(C)(C)C)NC(=O)[C@H](CC(=O)O)NC2=O (stereo partly drawn) [I-1039, Ac-PL3-Asp-Npg-B5-Asp-Glu-Ala-Ala-Phe-Leu-PyrS2-2C1F-BztA-dThr-NH2] | – | – | – | 2.65 | – | 20 (≈ 38.7 µg/mL) | – | 0.057 | –
CC[C@H](C)[C@@H]1NC(=O)[C@H](CC(=O)O)NC(=O)[C@]2(CC=CCCCC3(CCCC=CCCCCCC[C@@](C)(C(=O)N[C@@H](Cc4ccccc4)C(=O)N[C@@H](Cc4csc5ccccc45)C(=O)N[C@@H](CCC(N)=O)C(N)=O)NC(=O)[C@H](CCC(N)=O)NC(=O)[C@H](Cc4ccc(-c5ccccc5)cc4)NC(=O)[C@H](C)NC(=O)[C@H](C)NC(=O)[C@H](CCC(=O)O)NC(=O)[C@H](CC(=O)O)NC3=O)NC1=O)CCCN2C(C)=O (stereo partly drawn) [I-723, Ac-PL3-Asp-Ile-B5-Asp-Glu-Ala-Ala-Bip-Gln-S8-Phe-BztA-Gln-NH2] | 3.83 | – | – | 2.58 | – | 29 (≈ 56.8 µg/mL) | – | – | –

Continued, values first:

IC50 [1, 2] [µM] | CHI Log D (CHI Log D procedure) | Solubility (Solubility in PBS; 15 min) [µM] | chromatographic logD (CHI Log D procedure) | Solubility (Solubility in PBS) [µM] | Solubility (Solubility in PBS; Solubility (uM)) [µM] | IC50 ([1]; read-out: FP EC50) [µM] | IC50 ([1]; read-out: beta-Catenin FP IC50) [µM] | IC50 [1, 3] [µM] | SMILES
0.042 | 2.133 | 30 (≈ 55.5 µg/mL) | – | – | – | – | – | – | CC(=O)N1CCC[C@]12CC=CCCCC1(CCCC=CCCCCCC[C@@](C)(C(=O)N[C@@H](Cc3ccccc3)C(=O)N[C@@H](Cc3csc4ccccc34)C(=O)NC(Cc3cncn3C)C(N)=O)NC(=O)[C@H](CC(N)=O)NC(=O)[C@H](Cc3ccccc3)NC(=O)[C@H](C)NC(=O)[C@H](C)NC(=O)[C@H](CCC(=O)O)NC(=O)[C@H](CC(=O)O)NC1=O)NC(=O)[C@H](C)NC(=O)[C@H](CC(=O)O)NC2=O (single isomer, unassigned) [I-481, Ac-PL3-Asp-Ala-B5-Asp-Glu-Ala-Ala-Phe-Asn-S8-Phe-BztA-3MeH-NH2]
0.099 | – | – | 2.16 | – | 41 (≈ 73.7 µg/mL) | – | – | – | CC[C@H](NC(=O)[C@H](Cc1csc2ccccc12)NC(=O)[C@H](Cc1ccccc1)NC(=O)[C@]1(C)CCCCCCC=CCCCC2(CCCC=CC[C@]3(CCCN3C(C)=O)C(=O)N[C@@H](CC(=O)O)C(=O)N[C@@H](C)C(=O)N2)C(=O)N[C@@H](CC(=O)O)C(=O)N[C@@H](CCC(=O)O)C(=O)N[C@@H](C)C(=O)N[C@@H](C)C(=O)N[C@@H](Cc2ccccc2)C(=O)N[C@@H](CCC(N)=O)C(=O)N1)C(N)=O (stereo partly drawn) [I-509, Ac-PL3-Asp-Ala-B5-Asp-Glu-Ala-Ala-Phe-Gln-S8-Phe-BztA-Abu-NH2]
0.136 | – | – | 2.08 | – | 39 (≈ 70.7 µg/mL) | – | – | – | COC[C@@H]1NC(=O)[C@H](Cc2ccccc2)NC(=O)[C@H](C)NC(=O)[C@H](C)NC(=O)[C@H](CCC(=O)O)NC(=O)[C@H](CC(=O)O)NC(=O)C2(CCCC=CCCCCCC[C@@](C)(C(=O)N[C@@H](Cc3ccccc3)C(=O)N[C@@H](Cc3csc4ccccc34)C(=O)N[C@@H](CCC(N)=O)C(N)=O)NC1=O)CCCC=CC[C@]1(CCCN1C(C)=O)C(=O)N[C@@H](CC(=O)O)C(=O)N[C@@H](C)C(=O)N2 (stereo partly drawn) [I-433, Ac-PL3-Asp-Ala-B5-Asp-Glu-Ala-Ala-Phe-S(OMe)-S8-Phe-BztA-Gln-NH2]
0.114 | 2.436 | – | – | 24 (≈ 45.1 µg/mL) | – | 0.114 | – | – | CC[C@H](C)[C@@H]1NC(=O)[C@H](CC(=O)O)NC(=O)[C@]2(CC=CCCCC3(CCCC=CCCCCCC[C@@](C)(C(=O)N[C@@H](Cc4ccccc4)C(=O)N[C@@H](Cc4csc5ccccc45)C(=O)N[C@@H](Cc4c[nH]cn4)C(N)=O)NC(=O)[C@H](CCC(N)=O)NC(=O)[C@H](Cc4ccccc4)NC(=O)[C@H](C)NC(=O)[C@H](C)NC(=O)[C@H](CC(=O)O)NC(=O)[C@H](CC(=O)O)NC3=O)NC1=O)CCCN2C(C)=O (stereo partly drawn) [I-580, Ac-PL3-Asp-Ile-B5-Asp-Asp-Ala-Ala-Phe-Gln-S8-Phe-BztA-His-NH2]
